The record followed here is article PMC10101059, “Rational Design of Stapled Antimicrobial Peptides to Enhance Stability and In Vivo Potency against Polymicrobial Sepsis” (Microbiology Spectrum, 2023).

Values after ≈ are worked out from the molar mass of the structure shown. Bridge positions count the residues as written; N and C are the ends. Square brackets hold non-standard residues; d marks the D form. Peptide text beside a SMILES is read from it. R5 = C=CCCC[C@@](C)(N)C(=O)O A value given as a limit tells only on which side of the number the result lay.

For one series, the system named is Salmonella enterica. Put plainly: microbe, parasite or virus in culture. As to conditions: Salmonella enterica; MHB medium. The series is classed as cell-based. Summed up: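 Broth microdilution per modified NCCLS protocol: 5 × 10^5 CFU/mL bacteria exposed to serial peptide concentrations, 37 ± 2°C for 16 to 20 h. MIC = lowest concentration giving clear wells; clear wells plated on Mueller-Hinton agar overnight at 37 ± 2°C, MBC = lowest concentration with no growth. Serum sensitivity tested in medium with 50% human serum.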

Series [1] relates to murine macrophage (RAW 264.7). Briefly: alamarBlue cytotoxicity assay. Type of series: cell-based. The note with it: at 12.5 μM, 24 h. The protocol:
(§1) (i) Cell culture. Human skin keratinocytes (HaCaT), human kidney (HK-2), and RAW 264.7 macrophage cells were obtained from the Bioresource Collection and Research Center (BCRC, Hsinchu, Taiwan). HaCaT and […] macrophage cells were cultured in Dulbecco’s modified Eagle’s medium (DMEM, Thermo Fischer, MA, USA.) supplemented with 10% FBS, penicillin (100 U/mL), and streptomycin (100 μg/mL) at 37°C under 5% CO2. HK-2 cells were cultured in glucose-free Keratinocyte serum-free medium (K-SFM) supplemented with 0.05 mg/mL bovine pituitary extract (BPE), 5 ng/mL EGF, 100 U/mL penicillin, and […] streptomycin at 37°C in 5% CO2 ([49]).
(§2) In vitro toxicity assay. The cytotoxicity of TP4-3 was evaluated by an alamarBlue assay. HaCaT, HK-2, and RAW 264.7 macrophage cells were seeded at densities of 1 × 10^4 cells/well in 96-well cell plates and treated with the indicated concentrations of TP4 and TP4-3 for 24 h (0.78 to 100 μM). Cells treated with 0.1% Triton X-100 and culture medium served as negative and positive-control groups, respectively. After incubation, the cells were washed and incubated for 2 h at 37°C with 90 μL Dulbecco’s modified Eagle medium (DMEM) containing 10 μL alamarBlue reagent. Fluorescence was recorded using a Spectra Max i3 Multi-Mode detection platform (Molecular Devices, San Jose, CA) to measure cell viability ([50], [51]).
A general note: Alamar Blue is a resazurin reagent that responds to reducing activity.

For series [2], the system named is human keratinocyte (HaCaT). Put plainly: alamarBlue cytotoxicity assay. The series is classed as cell-based. The note with it: at 3.13 μM, 24 h. On the procedure:
as §1, §2

The next series relates to human kidney cell (HK-2). Briefly: alamarBlue cytotoxicity assay. The series is classed as cell-based. The note with it: at 3.13 μM, 24 h. The protocol: as §1, §2
In the next series the test system is female C57BL/6 mice. Put plainly: In vivo toxicity. On the procedure: The in vivo toxicity of TP4-3 was assessed in female C57BL/6 mice (BioLasco, Ilan, Taiwan) upon intravenous administration of TP4-3 (9, 45, and 60 mg/kg). […] All animals were monitored for 7 days. The number of dead animals and animal body weights were measured every 24 h. Seven days after the drug administration, blood samples were collected, and the animals were euthanized. ALT (GPT), AST (GOT), CRE, and BUN were analyzed using a dry-chemistry analyzer (Fujifilm DRI-CHEM 4000i) and commercially available kits (Fujifilm Corp., Tokyo, Japan) ([23], [54]). All animal experiments were approved by the institutional ethical committee (IACUC, Academia Sinica; ID no. 2021-12-1577 and 2021-12-1771).

The next series deals with A. baumannii. Briefly: SEM and TEM analysis. The note with it: 1× MIC. Type of series: cell-based, Acinetobacter baumannii. The protocol: The treated suspension was washed twice with 10 mM PBS (pH 7.4) followed by treatment with 4% glutaraldehyde. Next, the suspension was incubated for 30 min at 4°C. Following the incubation, the treated suspension was centrifuged (5,000 × g, 10 min), and the pellet was placed on a glass slide and allowed to attach for 30 min. The glass slide was then subjected to gradient ethanol washing from 0% to 100% ethanol. Finally, the glass slides were dried and coated with gold for imaging ([55]). For TEM, glutaraldehyde samples were cryoimmobilized and subjected to TEM imaging ([58], [59]).

In the series with Salmonella enterica, `C[C@@H](O)[C@H]1C(=O)N2C(C(=O)O)=C(S[C@@H]3CN[C@H](C(=O)N(C)C)C3)[C@H](C)[C@H]12` [Meropenem] registered an MBC of 6.25 µM (≈ 2.4 µg/mL) and an MIC of 3.13 to 6.25 µM (≈ 1.2 to 2.4 µg/mL).

For the molecule `CC[C@H](C)[C@H](NC(=O)[C@@H](NC(=O)[C@@H](N)Cc1ccccc1)[C@@H](C)CC)C(=O)N[C@]1(C)CCCC=CCCC[C@](C)(C(=O)NCC(=O)N[C@@H](CC(C)C)C(=O)N[C@@H](Cc2ccccc2)C(=O)N[C@@H](CCCCN)C(=O)N[C@@H](CCCCN)C(=O)N[C@@H](CCCCN)C(=O)N[C@@H](C)C(=O)NCC(=O)N[C@@H](C)C(=O)N[C@]2(C)CCCC=CCCC[C@](C)(C(=O)N[C@H](C(=O)N[C@@H](CCCCN)C(=O)N[C@@H](CCCCN)C(=O)O)[C@@H](C)CC)NC(=O)[C@H](CCCCN)NC(=O)[C@H](CCCCN)NC(=O)[C@H](CCCCN)NC2=O)NC(=O)[C@H](CO)NC(=O)[C@H](CCCCN)NC(=O)[C@H](CCCCN)NC1=O` [TP4-3] (H-FII[R5]KKS[R5]GLFKKKAGA[R5]KKK[R5]IKK-OH; staple 4-8, 18-22; N-terminus and C-terminus assumed), the cell death (in series [1]; in series [2]; in the series with human kidney cell (HK-2)) was below 10% in each case. Moreover, the “time to death after treatment” value in the series on female C57BL/6 mice (60 mg/kg i.v.) was at most 10 min. Moreover, the body weight entry in the series on female C57BL/6 mice (i.v. 9 or 45 mg/kg, 7 days) is recorded as “No significant changes in body weight”. Further, the survival result in the series on female C57BL/6 mice (i.v. doses of 9 or 45 mg/kg, 7 days) is listed as “All treated animals survived”. Moreover, the “kidney (BUN, CRE) and liver (GOT, GPT) function markers” value with female C57BL/6 mice (i.v., TP4-3 up to 45 mg/kg, meropenem 10 mg/kg, day 7) is “no obvious effects”. The “bacterial membrane architecture (SEM, TEM)” value in the series on A. baumannii is on record as “significant membrane deformation”.
